Patent publication US12714682B2, “Calixarene compounds and uses thereof” (UNIVERSITÄT WIEN, priority 2019, dated 2026)

Assays:
[1] = tested on: THP-1 human monocytic cell line; test: LPS-stimulated THP-1 macrophage cytokine production (LEGENDplex); format: cell-based
Protocol: A specific anti-inflammatory effect or activity of a compound is proven, if the compound can decrease the production of one of IL-1B, IL-6 and TNFα in human THP1 macrophages following LPS stimulation, as determined by a standard assay: THP-1 human monocytic cell lines are treated with 100 nM of Phorbol 12-myristate 13-acetate (PMA) for 48 h to induce mature macrophage-like state. Cells are then stimulated with 100 ng/ml of LPS in the absence and presence of 500 μM of compound. After 6 hours, supernatants of treated and untreated cells are collected, and cytokine levels determined using the Human Inflammatory panel LEGENDplex Human Pro-inflammatory Chemokine Panel (Cat. No. 740118). A positive result is considered if the compound is capable of reduce or block the production of IL-1β, IL-6, and TNFα in human THP1 macrophages after LPS stimulation.
Following cells were treated with [10 ng/ml] LPS in the absence and presence 10, 100 and 500 μM of SCA-744. Cytokine levels were determined by LEGENDplex™ Human Inflammation Panel assay from BioLegend. The bar heights represent the concentration means compared to LPS alone of 3 independent experiments carried out in triplicates.
Cells were treated with 100 nM of Phorbol 12-myristate 13-acetate (PMA) for 48 h to induce mature macrophage-like state. Cells were then stimulated with 100 ng/ml of Lipopolysaccharides (LPS) in the absence and presence of 500 μM of SCA-744. After 6 hours, supernatants of treated and untreated cells were collected and the levels of three major pro-inflammatory cytokines TNF-α, IL-6 and IL-1ß were determined using the Human Inflammatory panel of LEGENDPLEX Multi-Analyte Flow assay.

[2] = Cytotoxicity, CellTiter-Glo cell viability; format: cell-based; settings: human, HEK 293 cells (printed as HEK 293 neuroblastoma cell lines), 72 h treatment, read-out: EC50 cytotoxicity (cell viability, ATP)
Protocol: FIG. 19.: In-vitro assessment of SCA-744 (A) and SCA-754 (B) cytotoxicity. Experiments were performed using HEK 293 […] cell lines. The effect of SCA-744 and SCA-754 on cell viability was assessed using a standard ATP, CellTiter-Glo® Luminescent Cell Viability Assay following 72 hours treatment.
In vitro assessment of cytotoxicity of SCA-744 and SCA-754 in mammalian cells. 72 h following SCA-744 and SCA-754-treatment, cell viability was assessed using a standard ATP method, CellTiter-Glo® Luminescent Cell Viability Assay.

[3] = tested on: aged mice; test: Lung lysate cytokines in aged mice (animal model of ageing); format: in vivo; settings: 30 mg/kg i.p., 2 or 3 days intervals for 2 weeks
Protocol: In a second set of experiments, the anti-inflammatory effect of SCA-744 was tested in vivo, in an animal model of ageing. It is well established that the ageing process is associated with low-grade inflammation. Mice older than 18 months show many characteristics of aged humans and are considered as a relevant model of human ageing. […] After treatment of aged mice (5 mice/group) with SCA-744 for 2 weeks (at 2 or 3 days intervals at 30 mg/kg dose, i.p.), lungs of the mice were harvested and lysates were prepared. Cytokine levels were determined by LEGENDplex™ Mouse Inflammation Panel assay from BioLegend. […] Importantly, the anti-inflammatory cytokine IL-10 was not affected by SCA-744.

For `O=S(=O)(O)c1cc2c(O)c(c1)Cc1cc(S(=O)(=O)O)cc(c1O)Cc1cc(S(=O)(=O)O)cc(c1O)Cc1cc(S(=O)(=O)O)cc(c1O)C2` [SCA-744, 4-sulfocalix[4]arene], the “inhibition of LPS-induced TNF-α, IL-ß and IL-6” value ([1]; 10 ng/ml LPS, 10, 100 and 500 μM, FIG. 2) was “Dose-dependent inhibition”, the “pro-inflammatory cytokine levels (TNF-α, IL-6, IL-1ß) in culture supernatant” value ([1]; 500 μM, 100 ng/ml LPS, 6 hours, PMA-differentiated THP-1) was “significantly decreased” and the EC50 at 72 h [2] was 2 mM. The “IL-6, TNF-α and lipocalin (LCN2) in lung lysates” value [3] was “Significantly decreased amounts” and the “anti-inflammatory cytokine IL-10 in lung lysates” value [3] was “not affected”.
